Assay results: patent US20240327347A1, “COMPOUNDS AND METHODS FOR TREATING 5-HT2 […]” (Board of Supervisors of Louisiana State University and …, priority 2021, published 2024)

Assay: structure-activity relationship for anti-inflammatory activity (FIG. 3)
Details: SAR results
Text: The loss or modification of the 5-methoxy results in reduced efficacy in DOx/2Cx compounds.
We determined that DOx/2Cx structures with a modified or missing 5-methoxy have reduced anti-inflammatory activity (FIG. 3). […] Without wishing to be bound by theory, the 5-methoxy of the DOx/2Cx compounds can engage residues in the binding pocket similar to those that engage the 4-OH of tryptamines, although the residues engaged by tryptamines have not been elucidated because the crystal structure of a tryptamine in the 5-HT2A receptor has not yet been published. […] Thus, without wishing to be bound by theory, a water molecule also must be present there to form a hydrogen bond bridge from the oxygen to N343.
The SAR results as shown in FIG. 3 are consistent with engagement of TM6 N343 by the 5-methoxy or 4-OH of DOx/2Cx or tryptamines, respectively, through a hydrogen bond bridge with a water molecule to produce the conformational change to recruit anti-inflammatory effectors to the activated receptor.

With `CN(C)CCc1c[nH]c2ccccc12` [N,N-DMT, N,N-dimethyltryptamine] the anti-inflammatory efficacy/activity was “complete loss of efficacy”.
